Key:
[1] = DPPH radical scavenging assay; type: biochemical; settings: compound 0.1 mM
Excerpt: For the above reasons, the antioxidant ability of 5–F–saloH and Cu(II) complexes 1–5 has been evaluated via their scavenging activity towards DPPH and ABTS radicals, as well as the ability to reduce H2O2, and in comparison with that of well-known antioxidant agents such as nordihydroguaiaretic acid (NDGA), butylated hydroxytoluene (ΒHΤ), 6–hydroxy–2,5,7,8–tetramethylchromane–2–carboxylic acid (trolox) and L–ascorbic acid (these are the most commonly used standard reference antioxidant agents). The DPPH-radical assay was developed in the 1950s and this method has been used to assess the antioxidant capacity of several metal complexes. The DPPH–scavenging ability of compounds has often been related to their ability to prevent ageing, cancer and inflammation. The ability of a compound to scavenge the cationic ABTS radicals (ABTS^+●) has been considered a measure of its total antioxidant activity. Further, hydrogen peroxide has the ability to penetrate biological membranes and, although it is not very reactive itself, it can sometimes be toxic since it may give rise to hydroxyl radicals in cells. For this reason, the removal of H2O2 is very important for the protection of living systems. When a compound is incubated with H2O2 using a peroxidase assay system, the loss of H2O2 can be measured.
S1 Antioxidant activity assay
The antioxidant activity of the compounds was evaluated via their ability to scavenge in vitro free radicals such as DPPH and ABTS and to reduce H 2O2. All the experiments were carried out at least in triplicate and the standard deviation of absorbance was less than 10% of the mean.
S1.1 Determination of the reducing activity of the radical DPPH
To an ethanolic solution of DPPH (0.1 mM) an equal volume solution of the compounds (0.1 mM) in ethanol was added. Absolute ethanol was also used as control solution. The absorbance at 517 nm was recorded at room temperature after 30 and 60 min, in order to examine the possible existence of a potential time-dependence of the DPPH radical scavenging act iv ity [S 1]. The DPPH -scavenging activity of the compounds was expressed as the percentage reduction of the absorbance values of the initial DPPH solution ( DPPH%). N DGA and BHT were used as reference comp ounds. […]

[2] = biological target: T1, human serum albumin (HSA) (Homo sapiens, UniProt P02768); assay: Albumin binding by tryptophan fluorescence quenching (HSA); settings: for ΔΙ/Ιο, quenching of the HSA fluorescence: HSA 3 μM, λex 295 nm; for % relative HSA fluorescence emission intensity I/Io remaining (% of initial): final value, pH 7.0; for HSA-binding constant K: Scatchard equation; for HSA-quenching constant kq: from Stern–Volmer plots, τo 10^-8 s
T1 construct: purchased Sigma–Aldrich Co
T1 sequence (P02768 25-609): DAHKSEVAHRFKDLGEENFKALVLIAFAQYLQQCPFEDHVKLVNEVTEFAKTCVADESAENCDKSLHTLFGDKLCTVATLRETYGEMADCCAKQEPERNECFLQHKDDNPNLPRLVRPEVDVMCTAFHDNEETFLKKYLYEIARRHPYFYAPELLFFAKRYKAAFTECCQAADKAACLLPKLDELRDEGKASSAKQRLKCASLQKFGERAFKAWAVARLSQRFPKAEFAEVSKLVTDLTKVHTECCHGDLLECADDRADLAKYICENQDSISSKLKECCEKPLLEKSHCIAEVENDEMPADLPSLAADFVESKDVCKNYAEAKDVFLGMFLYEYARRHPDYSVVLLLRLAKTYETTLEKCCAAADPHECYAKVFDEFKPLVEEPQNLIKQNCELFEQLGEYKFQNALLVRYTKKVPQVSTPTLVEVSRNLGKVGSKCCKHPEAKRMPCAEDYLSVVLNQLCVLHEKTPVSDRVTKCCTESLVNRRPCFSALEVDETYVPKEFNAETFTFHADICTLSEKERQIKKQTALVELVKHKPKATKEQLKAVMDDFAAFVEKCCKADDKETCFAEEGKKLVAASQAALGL
Excerpt: Serum albumins are among the important proteins of the circulatory system. Their main role is to carry drugs and other bioactive small molecules through the bloodstream. BSA and HSA are structurally homologous albumins, having two and one tryptophan residues, respectively. The tryptophan residues of both albumins are responsible for the intense fluorescence emission band with λem,max = 342 nm for BSA and 350 nm for HSA, respectively, when their solutions are excited at 295 nm. […] The inner-filter effect was calculated with Equation (S4) and it was found too low to affect the measurements.
When the compounds were added to a solution of the albumins (3 μM), a significant quenching of the BSA (λem = 342 nm) and HSA (λem = 350 nm) fluorescence emission bands was observed (Figure 7) which was more pronounced in the case of BSA (Table 7 and Figure 8). […] The observed quenching may be ascribed to changes in the tryptophan environment of SA resulting from possible denaturation of their secondary structure, induced by the binding of the complexes to the albumins. […]
Io =1+ k τ [Q] =1+ K [Q] […]
S3Albumin -binding studies
In order to investigate if the compounds can bind to carrier proteins like serum albumins, we carried out albumin binding study by tryptophan fluorescence quenching experiments using bo vine serum albumin (BSA, 3 μM) in buffer (containing 15 mM trisodium citrate and 150 mM NaCl at pH 7.0). The quenching of the emission intensity of tryptophan residues of BSA at 343 nm was monitored using the co mpounds as que ncher s with increasing concentration [S4]. The fluo rescence emission spectra of the compounds were also recorded with λex = 295 nm. No fluorescence emission band was recorded and thus it was not related to the compounds . The influence of the inner-filter effect [S6] on the measurements wa s evaluated by equation S4.
Where Icorr = corrected intensity, Imeas = the measured intensity, c = the concentration of the quencher, d = the cuvette (1 cm), ε (λexc ) and ε(λe m) = the ε of the quencher at the excitation and the emission wavelength, respectively, as calculated from the UV-vis spectra of the […]
The Stern-Volmer and Scatchard graphs are used to study the interaction of the compounds with serum albumins. According to Stern-Volmer quenching equation (eq.
S2), where Io = the initial tryptophan fluorescence intensity of SA, I = the tryptophan fluorescence intensity of SA after the addition of the quencher, kq = the quenching […]
constant, KSV = the Stern-Volmer constant, τo = the average lifetime of SA without the quencher, and, tak ing as fluorescence lifet ime (τo) of tryptophan in SA at around 10-8 s [S 4] , KSV (in M -1) can be obtained by the slope of the diagram Io/I versus [compound] (Stern-Volmer plots), and subsequently the quenching (kq, in M -1s-1) may be calculated from eq.
From the Scatchard equation (eq. S5): […]
where n is the number of binding sites per albumin and K is the SA-binding constant (K, in M -1) is calculated from the slope in plots (ΔI/Io)/[complex] versus ΔI/Io and n is given by the ratio of y intercept to the slope [S7].
S1 Kontogiorgis, C.; Hadjipavlou–Lit ina, D. Biological Evaluat ion of Several Coumarin Derivatives Designed as Possible Anti–inflammatory/Antioxidant Agents. J. Enz. Inhib.
S2 Ruch, R.J.; Cheng, C.; Klaunig, J.E. Prevention of cytotoxicity and inhibition of intercellular communication by antioxidant catechins isolated from Chinese green tea.
S3 Wolfe, A.; Shimer, G.; Meehan, T. Polycyclic Aromatic Hydrocarbons Physically Intercalate into Duplex Regions of Denatured DNA. Biochemistry 1987, 26, 6392–6396.
S4 Lakowicz, J.R. Principles of Fluorescence Spectroscopy , 3rd ed.; Plenum Press: New […]
S5 Heller, D.P.; Greenstock, C.L. Fluorescence lifetime analysis of DNA intercalated ethid ium bromide and quench ing by free dye. Biophys. Chem.1994,50, 305–312.
S6 Stella, L.; Capodilupo, A.L.; Bietti, M. A reassessment of the association between […]
azulene and [60]fullerene. […]

Compound | DPPH% (30 min), % DPPH–scavenging ability [1] [%] | DPPH% (60 min), % DPPH–scavenging ability [1] [%] | ΔΙ/Ιο, quenching of the HSA fluorescence [2] [%] | % relative HSA fluorescence emission intensity I/Io remaining (% of initial) [2] [%] | HSA-binding constant K [2] | HSA-quenching constant kq [2]
O=Cc1cc(F)ccc1[O-].[Cl-].[Cu+2].c1ccc(Nc2ccccn2)nc1 [Complex 2, [Cu(5–F–salo)(bipyam)Cl]] | 7.54 ± 0.20 | 7.42 ± 0.50 | 62.7 | 37.3 | 5.09 (±0.29) × 10^5 M^−1 | 6.27 (±0.21) × 10^12 M^−1 s^−1
CO.Cc1ccc2ccc3ccc(C)nc3c2n1.O=Cc1cc(F)ccc1[O-].[Cl-].[Cu+2] [Complex 3, [Cu(5–F–salo)(neoc)Cl].CH3OH] | 7.42 ± 0.54 |  | 68.5 | 31.5 | 7.16 (±0.40) × 10^5 M^−1 | 1.25 (±0.05) × 10^13 M^−1 s^−1
O=Cc1cc(F)ccc1[O-].O=[N+]([O-])[O-].[Cu+2].c1ccc(-c2ccccn2)nc1 [Complex 5, [Cu(5–F–salo)(bipy)(NO3)]] | 7.19 ± 0.26 | 4.06 ± 0.20 | 63.0 |  | 1.31 (±0.05) × 10^6 M^−1 | 3.01 (±0.10) × 10^12 M^−1 s^−1
O=Cc1cc(F)ccc1[O-].O=Cc1cc(F)ccc1[O-].[Cu+2] [Complex 1, [Cu(5–F–salo)2]] | 9.05 ± 0.54 | 10.79 ± 0.20 | 61.3 | 38.7 | 1.58 (±0.09) × 10^5 M^−1 | 4.37 (±0.18) × 10^12 M^−1 s^−1
O=Cc1cc(F)ccc1[O-].O=[N+]([O-])[O-].[Cu+2].c1cnc2c(c1)ccc1cccnc12 [Complex 4, [Cu(5–F–salo)(phen)(NO3)]] | 6.15 ± 0.33 | 4.64 ± 0.10 | 74.6 | 25.5 | 1.70 (±0.09) × 10^6 M^−1 | 8.63 (±0.33) × 10^12 M^−1 s^−1

Source: PMC9782626, “Copper(II) Complexes of 5–Fluoro–Salicylaldehyde: Synthesis, Characterization, Antioxidant Properties, Interaction with DNA and Serum Albumins” (Molecules, 2022)
